Earlier results, collected in patent US20260216276A1, “COMPOSITIONS AND METHODS FOR MODULATING COMPLEMENT ACTIVITY” (UCB HOLDINGS, INC., priority 2019, published 2026).
Starred links: 1 amine or outer side, 2 acyl side, 3 side chain; linkers in the order of their positions; H or OH if unused. Positions of bridges follow the written chain, without caps; N, C: chain ends. Non-standard residues stand in square brackets, D forms with d. Residues, ends and D or L forms follow the SMILES beside them. Groups on a side chain read outwards from the residue. *: point of attachment. PEG24 = NCCOCCOCCOCCOCCOCCOCCOCCOCCOCCOCCOCCOCCOCCOCCOCCOCCOCCOCCOCCOCCOCCOCCOCCOCCC(=O)O; X1 = N=C(N)NCCC[C@H](N[*:1])C(=O)C[C@@H](Cc1ccccc1)C(=O)[*:2]; Trp(7-aza) = N[C@@H](Cc1c[nH]c2ncccc12)C(=O)O; γGlu = O=C(O)[C@H](CCC(=O)[*:2])N[*:1]; Palmitoyl = CCCCCCCCCCCCCCCC(=O)*; NMeD = CN[C@@H](CC(=O)O)C(=O)O; Chg = N[C@H](C(=O)O)C1CCCCC1; Tle = CC(C)(C)[C@H](N)C(=O)O

How the values were obtained:
[1] = tested on: surface-bound C5b-9 or soluble membrane attack complex (sC5b-9); conditions: unlike eculizumab; cited from earlier work
[2] = tested on: complement component 5 (C5); conditions: including p.R885>H/C; cited from earlier work

Which results are given for `CCCCCCCCCCCCCCCC(=O)N[C@@H](CCC(=O)NCCOCCOCCOCCOCCOCCOCCOCCOCCOCCOCCOCCOCCOCCOCCOCCOCCOCCOCCOCCOCCOCCOCCOCCOCCC(=O)NCCCC[C@H](NC(=O)[C@@H](NC(=O)[C@@H]1CCCN1C(=O)[C@H](Cc1ccc(O)cc1)NC(=O)[C@H](CCC(=O)[O-])NC(=O)[C@H](Cc1c[nH]c2ncccc12)NC(=O)[C@H](Cc1ccc(O)cc1)NC(=O)[C@@H](NC(=O)[C@H](CC(=O)[O-])N(C)C(=O)[C@@H]1CC(=O)NCCCC[C@H](NC(C)=O)C(=O)N[C@@H](C(C)C)C(=O)N[C@@H](CCC(=O)O)C(=O)N[C@@H](CCCNC(=N)N)C(=O)C[C@@H](Cc2ccccc2)C(=O)N1)C(C)(C)C)C1CCCCC1)C(=O)[O-])C(=O)[O-].[Na+].[Na+].[Na+].[Na+]` [zilucoplan] (Ac-KVE[X1]D[NMeD][Tle]Y[Trp(7-aza)]EYP[Chg]K([PEG24-γGlu-Palmitoyl])-OH; lactam 1-5)?
binding to surface-bound C5b-9 or sC5b-9 [1]: does not bind; binding and inhibitory activities in the presence of clinically relevant human C5 polymorphisms [2]: not affected
